Among the data in BindingDB's records for doi:10.1111/cbdd.12126 (Shaoyang University, 2013) are IC50 values, retold here.

SMILES strings stand for the structures.

For this test, the target named is T1, Polyphenol oxidase 2 (Agaricus bisporus, UniProt O42713).
T1 sequence (O42713 whole entry): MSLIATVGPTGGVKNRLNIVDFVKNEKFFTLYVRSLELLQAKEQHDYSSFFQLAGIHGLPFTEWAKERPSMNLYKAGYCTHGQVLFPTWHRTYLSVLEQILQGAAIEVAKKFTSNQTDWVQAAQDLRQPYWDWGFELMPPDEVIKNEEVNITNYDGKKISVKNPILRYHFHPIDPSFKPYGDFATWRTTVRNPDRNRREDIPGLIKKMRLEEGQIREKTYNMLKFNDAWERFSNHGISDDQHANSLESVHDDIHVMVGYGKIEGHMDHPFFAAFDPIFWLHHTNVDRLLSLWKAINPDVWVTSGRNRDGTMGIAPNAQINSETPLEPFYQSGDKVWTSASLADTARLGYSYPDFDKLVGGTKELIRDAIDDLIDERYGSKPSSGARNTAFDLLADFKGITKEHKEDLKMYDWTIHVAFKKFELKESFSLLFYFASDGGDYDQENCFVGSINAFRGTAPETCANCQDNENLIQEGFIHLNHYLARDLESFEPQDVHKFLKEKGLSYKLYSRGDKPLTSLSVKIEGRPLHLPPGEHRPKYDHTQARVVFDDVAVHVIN
In words: Spectrophotometric Assay. The conditions noted are these: pH 6.8; 25 °C. As to the method:
All compounds were dissolved in DMSO (final DMSO concentration in test solution was 2.0%). Phosphate buffer, pH 6.8, was use to dilute the DMSO stock solution of test compounds. Thirty units of mushroom tyrosinase (0.5 mg/mL) were first pre-incubated with the compounds, in 50 mM phosphate buffer (pH 6.8), for 10 min at 25°C, followed by addition of L-DOPA (0.5 mM). The enzyme reaction was monitored by measuring the change in absorbance at 475 nm of formation of the DOPA chrome for 1 min. The measurement was performed in triplicate for each concentration and averaged before further calculation.
For `O=C(/C=C/c1ccccc1)c1ccc(O)cc1O` [1-(2,4-dihydroxyphenyl)-3-phenylprop-2-en-1-one (4)], the half-inhibitory concentration (IC50) was 110 µM.
Under `O=C(/C=C/c1ccccc1)c1cccc(Cl)c1` [1-(3-chlorophenyl)-3-phenylprop-2-en-1-one (11)] stands 117 µM; under `COc1ccc(C(=O)/C=C/c2ccccc2)cc1` [1-(4-methoxyphenyl)-3-phenylprop-2-en-1-one (6)], 142 µM.

The term IC50 denotes the point on the concentration scale where inhibition reaches its midpoint. Read a low IC50 as inhibition by little substance.
